Measured values as given in patent US20240408274A1, “STENTS AND METHODS OF USE” (UNIVERSITY OF CONNECTICUT, priority 2021, published 2024).

System: Urothelial cell
Experiment: Urothelial cell scratch assay (wound assay)
Format: cell-based
Conditions: at 48 hours; FIGS. 7A-7B
Text: As used herein a “scratch assay,” (i.e., a wound assay) is a method to measure two-dimensional cell migration. Six growth factors were selected and tested: EGF, FGF-2, PDGF, TGF-β1, and VEGF.

Substance: IGF-1: insulin-like growth factor 1, growth factor tested in urothelial scratch assay
- wound gap coverage: increase

Substance: EGF: epidermal growth factor, growth factor tested in urothelial scratch assay (NSDSECPLSHDGYCLHDGVCMYIEALDKYACNCVVGYIGERCQYRDLKWWELR; UniProt P01133 971-1023, looked up)
- wound gap coverage: increase
